Experimental data from ChEMBL document CHEMBL4376898, “Enhanced Activity against Multidrug-Resistant Bacteria through Coapplication of an Analogue of Tachyplesin I and an Inhibitor of the QseC/B Signaling Pathway” (J Med Chem, 2020).
Values after ≈ are worked out from the molar mass of the structure shown. Active and inactive are the calls of the source. The calls are words filed in the database; no cut-off is given here.

Assays:
[1] = system: Escherichia coli; assay: Bactericidal activity against Escherichia coli K-12; type: functional
[2] = system: Enterococcus faecium; assay: Antimicrobial activity against Enterococcus […] ATCC 29212 assessed as inhibition of visible growth incubated for 18 hrs; type: functional
[3] = system: L02; assay: Cytotoxicity in human L02 cells assessed as reduction in cell viability at >64 ug/ml incubated for 48 hrs by resazurin dye based assay; conditions: l02, 48 h
[4] = system: Klebsiella pneumoniae; assay: Antimicrobial activity against Klebsiella pneumoniae BAA 1144 assessed as inhibition of visible growth incubated for 18 hrs; type: functional
[5] = system: Shigella flexneri; assay: Bactericidal activity against Shigella flexneri ATCC 29903; type: functional
[6] = system: L02; assay: Cytotoxicity in human L02 cells assessed as reduction in cell viability at <32 ug/ml incubated for 48 hrs by resazurin dye based assay; conditions: l02, 48 h
[7] = system: Erythrocyte; assay: Toxicity in human erythrocytes assessed as induction of hemolysis at <50 ug/ml incubated for 1 hr by spectrometry; type: cell-based
[8] = system: Staphylococcus aureus; assay: Bactericidal activity against Staphylococcus aureus ATCC 29213; type: functional
[9] = system: Pseudomonas aeruginosa; assay: Antimicrobial activity against Pseudomonas aeruginosa ATCC 27853 assessed as inhibition of visible growth incubated for 18 hrs; type: functional
[10] = Stability in human plasma assessed as parent compound remaining at […] measured after 2 hrs by HPLC analysis; type: ADME, cell-free; conditions: read-out: Stability
[11] = system: Bacillus subtilis; assay: Bactericidal activity against Bacillus subtilis 168; type: functional
[12] = system: Enterococcus faecium; assay: Bactericidal activity against Enterococcus […] ATCC 29212; type: functional
[13] = system: Escherichia coli; assay: Antimicrobial activity against Escherichia coli K-12 assessed as inhibition of visible growth incubated for 18 hrs; type: functional
[14] = system: Pseudomonas aeruginosa; assay: Antimicrobial activity against Pseudomonas aeruginosa BAA 2108 assessed as inhibition of visible growth incubated for 18 hrs; type: functional
[15] = system: Acinetobacter baumannii; assay: Bactericidal activity against Acinetobacter baumannii ATCC 19606; type: functional; conditions: ATCC 19606 = CIP 70.34 = JCM 6841
[16] = system: Bacillus subtilis; assay: Antimicrobial activity against Bacillus subtilis 168 assessed as inhibition of visible growth incubated for 18 hrs; type: functional
[17] = Bactericidal activity against Lysobacter enzymogenes YC36; type: functional
[18] = system: Staphylococcus aureus; assay: Antimicrobial activity against Staphylococcus aureus ATCC 29213 assessed as inhibition of visible growth incubated for 18 hrs; type: functional
[19] = system: Acinetobacter baumannii; assay: Antimicrobial activity against Acinetobacter baumannii ATCC 19606 assessed as inhibition of visible growth incubated for 18 hrs; type: functional
[20] = system: Staphylococcus aureus; assay: Antimicrobial activity against Staphylococcus aureus BAA 44 assessed as inhibition of visible growth incubated for 18 hrs; type: functional
[21] = system: Escherichia coli; assay: Antimicrobial activity against Escherichia coli ATCC 25923 assessed as inhibition of visible growth incubated for 18 hrs; type: functional
[22] = system: Erythrocyte; assay: Toxicity in human erythrocytes assessed as induction of hemolysis incubated for 1 hr by spectrometry; type: cell-based
[23] = Stability in human plasma assessed as parent compound degradation at […] measured after 6 hrs by HPLC analysis; type: ADME, cell-free; conditions: read-out: Drug degradation
[24] = system: Klebsiella pneumoniae; assay: Antimicrobial activity against Klebsiella pneumoniae BAA 2470 assessed as inhibition of visible growth incubated for 18 hrs; type: functional
[25] = system: Lysobacter enzymogenes; assay: Antimicrobial activity against Lysobacter enzymogenes YC36 assessed as inhibition of visible growth incubated for 18 hrs; type: functional
[26] = system: Enterobacter cloacae; assay: Antimicrobial activity against Enterobacter cloacae BAA 1143 assessed as inhibition of visible growth incubated for 18 hrs; type: functional
[27] = system: Pseudomonas aeruginosa; assay: Bactericidal activity against Pseudomonas aeruginosa ATCC 27853; type: functional
[28] = system: Staphylococcus aureus; assay: Antimicrobial activity against Staphylococcus aureus BAA 41 assessed as inhibition of visible growth incubated for 18 hrs; type: functional
[29] = system: Erythrocyte; assay: Toxicity in human erythrocytes assessed as induction of hemolysis incubated for 1 hr by visual absorption spectroscopy; type: cell-based
[30] = system: Escherichia coli; assay: Antimicrobial activity against Escherichia coli BAA 2469 assessed as inhibition of visible growth incubated for 18 hrs; type: functional
[31] = Antimicrobial activity against Lysobacter enzymogenes YC36 assessed as inhibition of visible growth measured after 7th generation exposure to compound by continuous repeated transfer assay relative to before passage; type: functional
[32] = system: Lysobacter enzymogenes; assay: Bactericidal activity against Lysobacter enzymogenes YC36 at 4 ug/ml; type: functional
[33] = system: Lipid bilayer; assay: Induction of membrane lysis in LUVs composed of Escherichia coli lipid extract filled with 5-carboxyfluorescein incubated in dark for 20 mins by fluorescence based assay
[34] = system: Lysobacter enzymogenes; assay: Induction of drug efflux pumps gene expression in Lysobacter enzymogenes YC36 with delta qseB mutant at 2 ug/ml by genome-wide transcription profiling assay; type: functional
[35] = system: Lysobacter enzymogenes; assay: Induction of drug efflux pumps gene expression in Lysobacter enzymogenes YC36 assessed as increase in czcB expression at 2 ug/ml by genome-wide transcription profiling assay; type: functional
[36] = system: Lysobacter enzymogenes; assay: Bactericidal activity against Lysobacter enzymogenes YC36 with delta qseB mutant; type: functional
[37] = system: Lysobacter enzymogenes; assay: Induction of drug efflux pumps gene expression in Lysobacter enzymogenes YC36 assessed as increase in QseC expression at 2 ug/ml by genome-wide transcription profiling assay; type: functional
[38] = system: Lysobacter enzymogenes; assay: Induction of drug efflux pumps gene expression in Lysobacter enzymogenes YC36 assessed as increase in nodT expression at 2 ug/ml by genome-wide transcription profiling assay; type: functional
[39] = system: Lysobacter enzymogenes; assay: Induction of drug efflux pumps gene expression in Lysobacter enzymogenes YC36 assessed as increase in QseB expression at 2 ug/ml by genome-wide transcription profiling assay; type: functional
[40] = system: Lysobacter enzymogenes; assay: Bactericidal activity against Lysobacter enzymogenes YC36 at 2 ug/ml in presence of 5 pM QseC inhibitor LED209; type: functional
[41] = system: Lysobacter enzymogenes; assay: Induction of bacterial cell membrane leakage in Lysobacter enzymogenes YC36 assessed as induction of serious depressions with leakage of intracellular contents surrounding bacteria by atomic force microscopy; type: functional, cell-based
[42] = system: Stenotrophomonas maltophilia; assay: Bactericidal activity against Stenotrophomonas maltophilia at 2 ug/ml in presence of 5 pM QseC inhibitor LED209; type: functional, organism-based
[43] = system: Lysobacter enzymogenes; assay: Bactericidal activity against Lysobacter enzymogenes YC36 with delta qseC mutant; type: functional
[44] = system: Lysobacter enzymogenes; assay: Bactericidal activity against Lysobacter enzymogenes YC36 at 10 ug/ml; type: functional
[45] = system: Pseudoalteromonas antarctica; assay: Bactericidal activity against Pseudoalteromonas antarctica at 2 ug/ml in presence of 5 pM QseC inhibitor LED209; type: functional, organism-based
[46] = system: Lysobacter enzymogenes; assay: Induction of drug efflux pumps gene expression in Lysobacter enzymogenes YC36 assessed as increase in ftsX expression at 2 ug/ml by genome-wide transcription profiling assay; type: functional
[47] = system: Lysobacter enzymogenes; assay: Induction of drug efflux pumps gene expression in Lysobacter enzymogenes YC36 assessed as increase in yceL expression at 2 ug/ml by genome-wide transcription profiling assay; type: functional

In the case of `CC[C@H](C)[C@@H]1NC(=O)CNC(=O)[C@H](CCCNC(=N)N)NC(=O)[C@H](Cc2ccc(O)cc2)NC(=O)[C@@H]2CSSC[C@H](NC1=O)C(=O)N[C@@H](Cc1ccc(O)cc1)C(=O)N[C@@H](CCCNC(=N)N)C(=O)N[C@@H](CCCNC(=N)N)C(=O)N[C@H](C(=O)N[C@@H](CCCNC(=N)N)C(N)=O)CSSC[C@H](NC(=O)[C@H](Cc1c[nH]c3ccccc13)NC(=O)[C@@H](N)CCCCN)C(=O)N[C@@H](Cc1ccccc1)C(=O)N[C@@H](CCCNC(=N)N)C(=O)N[C@@H](C(C)C)C(=O)N2`, the MBC [1] is reported as 16 to 64 µg/mL (≈ 7.07 to 28.3 µM), the MIC ([2]; ATCC 29212, 18 h) is reported as 8 µg/mL (≈ 3.53 µM) and the Activity [3] is reported as “Toxic”. For the same compound, the MIC ([4]; BAA 1144, 18 h) was 8 µg/mL (≈ 3.53 µM), the MBC [5] was 16 to 64 µg/mL (≈ 7.07 to 28.3 µM) and the Activity [6] was “Non-Toxic”. For the same compound, the Activity [7] was “Toxic”, the MBC [8] was 16 to 64 µg/mL (≈ 7.07 to 28.3 µM) and the MIC ([9]; ATCC 27853, 18 h) was 4 to 8 µg/mL (≈ 1.77 to 3.53 µM). The remaining at 2 h [10] was 20%, the MBC [11] was 16 to 64 µg/mL (≈ 7.07 to 28.3 µM) and the MBC [12] was 16 to 64 µg/mL (≈ 7.07 to 28.3 µM). For the same compound, the MIC ([13]; K-12, 18 h) was 4 µg/mL (≈ 1.77 µM), the MIC ([14]; BAA 2108, 18 h) was 8 µg/mL (≈ 3.53 µM) and the MBC [15] was 16 to 64 µg/mL (≈ 7.07 to 28.3 µM). It also gave an MIC ([16]; Bacillus subtilis, 168, 18 h) of 4 µg/mL (≈ 1.77 µM), an MBC [17] of 16 to 64 µg/mL (≈ 7.07 to 28.3 µM) and an MIC ([18]; ATCC 29213, 18 h) of 8 µg/mL (≈ 3.53 µM). The MIC ([19]; ATCC 19606 = CIP 70.34 = JCM 6841, 18 h) was 8 to 16 µg/mL (≈ 3.53 to 7.07 µM), the MIC ([20]; BAA 44, 18 h) was 4 µg/mL (≈ 1.77 µM) and the MIC ([21]; ATCC 25923, 18 h) was 2 to 4 µg/mL (≈ 0.883 to 1.77 µM). The Activity [22] was “Dose-dependent effect”, the metabolised at 6 h [23] was 100% and the MIC ([24]; BAA 2470, 18 h) was 16 µg/mL (≈ 7.07 µM). For the same compound, the Activity [25] was “Dose-dependent effect”, the MIC ([26]; BAA 1143, 18 h) was 8 µg/mL (≈ 3.53 µM) and the MBC [27] was 16 to 64 µg/mL (≈ 7.07 to 28.3 µM). It also gave an MIC ([28]; BAA 41, 18 h) of 4 µg/mL (≈ 1.77 µM), an MHC [29] of 0.25 µg/mL and an MIC ([30]; BAA 2469, 18 h) of 8 µg/mL (≈ 3.53 µM). For the same compound, the “fold change (FC)” value [31] was 2 and the Activity [32] was “inactive”.

With `CC[C@H](C)[C@H]1NC(=O)CNC(=O)[C@@H](CCCNC(=N)N)NC(=O)[C@@H](Cc2ccc(O)cc2)NC(=O)[C@H]2CSSC[C@@H](NC1=O)C(=O)N[C@H](Cc1ccc(O)cc1)C(=O)N[C@H](CCCNC(=N)N)C(=O)N[C@H](CCCNC(=N)N)C(=O)N[C@@H](C(=O)N[C@H](CCCNC(=N)N)C(N)=O)CSSC[C@@H](NC(=O)[C@@H](Cc1c[nH]c3ccccc13)NC(=O)[C@H](N)CCCCN)C(=O)N[C@H](Cc1ccccc1)C(=O)N[C@H](CCCNC(=N)N)C(=O)N[C@H](C(C)C)C(=O)N2` the Activity [33] was “Dose-dependent effect”, the Activity [34] was “inactive” and the Activity [35] was “Active”. For the same compound, the Activity [36] was “Active”, the Activity [37] was “Active” and the Activity [38] was “Active”. The Activity [39] was “Active”, the Activity [40] was “Active” and the Activity [41] was “Active”. For the same compound, the Activity [42] was “Active”, the Activity [43] was “Active” and the Activity [44] was “inactive”. The Activity [45] was “Active”, the Activity [46] was “Active” and the Activity [25] was “Dose-dependent effect”. For the same compound, the Activity [47] was “Active” and the Activity [32] was “Active”.

Work on COLISTIN yielded an MIC [2] of over 128 µg/mL, an MIC [4] of 2 µg/mL and an MIC [9] of 4 µg/mL. The MIC [13] was 2 µg/mL, the MIC [14] was 4 µg/mL and the MIC [16] was 16 µg/mL. For the same compound, the MIC [18] was over 128 µg/mL, the MIC ([19]; ATCC 19606 = CIP 70.34 = JCM 6841) was 4 µg/mL and the MIC [20] was over 128 µg/mL. It also gave an MIC [21] of 2 µg/mL, an MIC [24] of 2 µg/mL and an MIC [26] of 4 µg/mL. For the same compound, the MIC [28] was over 128 µg/mL and the MIC [30] was 2 µg/mL.
